This is an account of results in the RepoRT retention time repository.

A short description of the series: Waters ACQUITY UPLC HSS T3, 0.4 mL/min; A: water + 0.1% formic acid; B: acetonitrile + 0.1% formic acid; gradient (min/%B) 0/5 1.5/5 12/95 14/95 14.01/100 17/100. Particulars: stereoisomer not certain.

Consider `CCC=CCC=CCC=CCCCCCCCC(=O)OC(COC(=O)CCCCCCCCCCCCCCC)COP(=O)(O)OCC(O)CO` (stereo unspecified), for which the LC retention time amounted to 13.9 min.
